Laboratory results from PMC11098088, “A distinct, high-affinity, alkaline phosphatase facilitates occupation of P-depleted environments by marine picocyanobacteria” (Proceedings of the National Academy of Sciences of the …, 2024).

B1: Psip1 (Prochlorococcus marinus subsp. pastoris str. CCMP1986) (protein)
chain: ETKRIGETRALIPEAGLALNPVLDGGNGNVDFPFGNFKALATVGEVGDNGLALTGYPDGQAAYLLDNDTIRVVYQSESYATMGKAPVPETYNWEMKNGVTFSGSHIHTIDYDRAKFAKFMKNGSSAEGMVKDSGKLFNTIYNVFGDEVTKENLVWGNQALPSQRVVPFLDKYKLSEADFFLQSFCGAWYEQANKYGNGIGLEDDVWLTAEEWEIGRMFTGSKKTGRTESDKTMGLASIAVDVKNEVAYTAPALGQTGYEKLMPINPQHKDYVVIVGAGYNHNQEPAPLKVYVGMKDRLPDGSEIDYSTANERDAFLGRNGMLYGRIYGFAMPTKSYASLGLEANPAAKMMDEYLQNADAPNSFEGRFYPTSYQWGGWDNPVSVNNTEMMLWEQAGEQPEGYTFFNGDSKAEHPAVDPDINRTRYVQNMTNKGGILGFDFGFIGATLDAADGDLPEFLPATGIRVVPAIDGALTLKTGGEGVVKDGSAAIHVEKNKAAMVSPDGLYWTKHADGSYLIVDEDSGNDFGERKYVLPIKESDMTLSEPNTGYLLGLAGGKHSSRYEAGASALGGAFSKATTSEFSGSWNVTALTTKKSNGLFGSKFYSMDELAGTGEQEIIQGIDTDDQLFIGVVQARGESGGAVAEEGGDAGGQVFQFTFNLPEKSEGENIAQF
notes: predicted signal peptide removed; codon-optimized; pET-23a(+), C-terminal His-tag; E. coli BL21(DE3); reconstituted with Fe and Ca

Experiments:
Psip1 = biological target: T1, Psip1 (Prochlorococcus marinus, UniProt Q7V066); experiment: inhibition of MUF release from MUF-P; format: biochemical; settings: competing with MUF-P; estimated Ki; Fe(III) and Ca2+; Pi release by phosphomolybdate assay
T1 construct: gene PMM1416; predicted signal peptide removed; codon-optimized; pET-23a(+), C-terminal His-tag; E. coli BL21(DE3); reconstituted with Fe and Ca
T1 sequence (Q7V066 24-694): B1 chain
From the text: inhibition of MUF release from […] on Psip1 | natural organic P compounds: glycerol-1-phosphate (G1P) | glycerol-3-phosphate (G3P) | phosphocholine (PC) | phosphorylethanolamine (PE) | adenosine monophosphate (AMP) | glucosamine-6-phosphate (Ga6P) by measuring the inhibition of MUF release from […]

purified protein [1] = substrate: Cc1cc(=O)oc2cc(OP(=O)(O)Oc3ccc4c(C)cc(=O)oc4c3)ccc12; experiment: purified protein; settings: pH 8.8, Fe(III) and Ca2+, 30 °C, phosphodiesterase activity
purified protein [2] = substrate: O=[N+]([O-])c1ccc(OP(=O)(O)O)cc1; experiment: purified protein; format: biochemical, Prochlorococcus marinus; settings: pH 9.8, Fe(III) and Ca2+, 30 °C

Molecule | Ki (Psip1) | Km (purified protein [1]) | Km (purified protein [2])
C[N+](C)(C)CCOP(=O)([O-])O [phosphocholine] | 2.20 ± 0.37 µM |  | 
O=P(O)(O)OCC(O)CO (centres unmarked) [glycerol-1-phosphate] | 1.20 ± 0.20 µM |  | 
Nc1ncnc2c1ncn2[C@@H]1O[C@H](COP(=O)(O)O)[C@@H](O)[C@H]1O [adenosine monophosphate] | 1.52 ± 0.22 µM |  | 
N[C@H]1C(O)O[C@H](COP(=O)(O)O)[C@@H](O)[C@@H]1O (some centres unmarked) [glucosamine-6-phosphate] | 0.60 ± 0.11 µM |  | 
O=P(O)(O)OC[C@H](O)CO [glycerol-3-phosphate] | 0.79 ± 0.15 µM |  | 
NCCOP(=O)(O)O [phosphorylethanolamine] | 4.46 ± 1.08 µM |  | 
B1 |  | 46.1 ± 5.72 µM | 2.5 ± 1.18 µM
